In one test the test system is Aβ total. The test can be described thus: Aβ total levels in H4 neuroglioma cells stably expressing human APP695 (MSD electrochemiluminescence). As to conditions: selectivity ratio vs. Aβtotal, prior art compounds, Table 4b. It counts as cell-based. The method, boiled down:
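H4 cells expressing human APP695, plated near confluency, exposed 22 h at 37 °C to compounds over 30 μM–0.1 nM (0.5% DMSO final). Supernatant Aβ total quantified by MSD electrochemiluminescence immunoassay.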

The next test concerns the target T1, MAP4K2 (GCK) (Homo sapiens, UniProt Q12851).
T1 sequence (Q12851 1-820): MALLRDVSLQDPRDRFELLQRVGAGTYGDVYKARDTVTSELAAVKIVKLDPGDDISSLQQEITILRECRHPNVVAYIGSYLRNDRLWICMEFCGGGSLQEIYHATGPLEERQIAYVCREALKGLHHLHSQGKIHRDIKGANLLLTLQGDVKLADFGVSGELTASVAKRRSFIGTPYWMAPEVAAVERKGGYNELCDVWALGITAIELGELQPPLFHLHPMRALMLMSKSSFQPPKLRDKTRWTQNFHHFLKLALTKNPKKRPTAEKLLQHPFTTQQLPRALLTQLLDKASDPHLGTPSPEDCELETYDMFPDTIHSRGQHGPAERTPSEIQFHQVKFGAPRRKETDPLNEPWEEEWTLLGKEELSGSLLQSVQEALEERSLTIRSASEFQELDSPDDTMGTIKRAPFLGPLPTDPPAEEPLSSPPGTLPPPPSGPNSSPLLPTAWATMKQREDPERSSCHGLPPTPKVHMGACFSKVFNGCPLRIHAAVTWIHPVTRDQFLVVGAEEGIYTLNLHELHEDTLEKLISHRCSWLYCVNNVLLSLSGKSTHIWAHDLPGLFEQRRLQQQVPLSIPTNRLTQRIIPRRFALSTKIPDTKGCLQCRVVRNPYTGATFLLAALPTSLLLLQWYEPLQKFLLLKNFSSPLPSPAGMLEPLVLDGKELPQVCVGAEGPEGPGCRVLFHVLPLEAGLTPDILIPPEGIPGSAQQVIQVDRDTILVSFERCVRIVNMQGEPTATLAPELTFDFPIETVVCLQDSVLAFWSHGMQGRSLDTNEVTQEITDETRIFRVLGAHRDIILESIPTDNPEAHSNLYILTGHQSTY
As to the kind of experiment: Z'-LYTE SelectScreen biochemical kinase assay MAP4K2 (GCK). For % Inhibition mean: compound concentration 10000 nM. The source says:
Thermo Fisher Scientific SelectScreen™ Biochemical Kinase Profiling Service Z′-LYTE™ Screening Protocol and Assay Conditions Assay Theory
The […] biochemical assay employs a fluorescence-based, coupled-enzyme format and is based on the differential sensitivity of phosphorylated and non-phosphorylated peptides to proteolytic cleavage. The peptide substrate is labeled with two fluorophores—one at each end—that make up a FRET pair. In the primary reaction, the kinase transfers the gamma-phosphate of ATP to a single tyrosine, serine or threonine residue in a synthetic FRET-peptide. In the secondary reaction, a site-specific protease recognizes and cleaves non-phosphorylated FRET-peptides. Phosphorylation of FRET-peptides suppresses cleavage by the Development Reagent. Cleavage disrupts FRET between the donor (i.e., coumarin) and acceptor (i.e., fluorescein) fluorophores on the FRET-peptide, whereas uncleaved, phosphorylated FRET-peptides maintain FRET. A ratiometric method, which calculates the ratio (Emission Ratio=Coumarin emission (445 nm)/Fluorescein emission (520 nm)) of donor emission to acceptor emission after excitation of the donor fluorophore at 400 nm, is used to quantitate reaction progress, as shown in the equation below. A significant benefit of this ratiometric method for quantitating reaction progress is the elimination of well-to-well variations in FRET-peptide concentration and signal intensities. As a result, the assay yields very high Z′-factor values (>0.7) at a low percent phosphorylation. Both cleaved and uncleaved FRET-peptides contribute to the fluorescence signals and therefore to the Emission Ratio. The extent of phosphorylation of the FRET-peptide can be calculated from the Emission Ratio. The Emission Ratio will remain low if the FRET-peptide is phosphorylated (i.e., no kinase inhibition) and will be high if the FRET-peptide is non-phosphorylated (i.e., kinase inhibition).
The Test Compounds are screened in 1% DMSO (final) in the well. For 10 point titrations, 3-fold serial dilutions are conducted from the starting concentration of the customer's choosing.
All Peptide/Kinase Mixtures are diluted to a 2× working concentration in the appropriate Kinase Buffer (see section Kinase Specific Assay Conditions for a complete description).
All ATP Solutions are diluted to a 4× working concentration in Kinase Buffer (50 mM HEPES pH 7.5, 0.01% BRIJ-35, 10 mM MgCl2, 1 mM EGTA). ATP Km apparent is previously determined using a Z″-LYTE assay.
The Development Reagent is diluted in Development Buffer (see section Kinase-Specific Assay Conditions—Direct and Cascade for a complete description).
Bar-coded Corning, low volume NBS, black 384-well plate (Corning Cat. #4514) • 1. 100 nL—100× Test Compound in 100% DMSO • 2. 2.4 μL—Kinase buffer • 3. 5 μL—2× Peptide/Kinase Mixture • 4. 2.5 μL—4×ATP Solution • 5. 30—second plate shake • 6. 60—minute Kinase Reaction incubation at room temperature • 7. 5 μL—Development Reagent Solution • 8. 30—second plate shake • 9. 60—minute Development Reaction incubation at room temperature • 10. Read on fluorescence plate reader and analyze the data Z′-LYTE Assay Controls
SelectScreen Kinase Profiling Service uses XLfit from IDBS. The dose response curve is curve fit to model number 205 (sigmoidal dose-response model).
The 2×MAP4K2 (GCK)/Ser/Thr 07 mixture is prepared in 50 mM HEPES pH 7.5, 0.01% BRIJ-35, 10 mM MgCl2, 1 mM EGTA. The final 10 μL Kinase Reaction consists of 0.11-3 ng MAP4K2 (GCK) and 2 μM Ser/Thr 07 in 50 mM HEPES pH 7.5, 0.01% BRIJ-35, 10 mM MgCl2, 1 mM EGTA. After the 1 hour Kinase Reaction incubation, 5 μL of a 1:45000 dilution of Development Reagent A is added.

Like-named read-outs stand apart in the source and are kept apart here.

Regarding `CC1(C)NC(=O)c2ccc(Nc3nc4c(-c5cccc(F)c5)cccn4n3)cc21` [Cpd. 302 in WO09155551, reference compound], in the test with Aβ total, the “Ratio AβTotal IC50/Aβ42 IC50” value is 1. The inhibition at 10 µM on MAP4K2 (GCK) (10 μmolar compound concentration, ATP at Km app, read-out: MAP4K2 (GCK) inhibition) was more than 80%; at MAP4K2 (GCK) (read-out: % Inhibition mean) it was 99%.

As usually defined, the inhibition is the percentage by which the read-out fell short of the control.
